Measured values from patent US20030144310A1 (priority 2001, published 2003).

What was measured:
[1] = target: T1, rNPFF-1 (Rattus norvegicus, UniProt Q9EP86); assay: Radioligand binding assay, competitive displacement of [125I]1DMeNPFF at cloned NPFF receptors; conditions: cloned rat receptor
T1 construct: expressed in transfected cells

[2] = target: T2, rNPFF-2 (Rattus norvegicus, UniProt Q9EQD2); assay: as above; conditions: cloned rat receptor
T2 construct: expressed in transfected cells

[3] = target: T1, rNPFF-1; assay: Functional activity (EC50 and intrinsic activity relative to NPFF); format: cell-based; conditions: for Functional Activity rNPFF-1 I.A. %: intrinsic activity as percentage of maximal response by NPFF; for EC50: tested 0.001 nM to 3600 nM
Source text: (§1) The data shown are representative of at least two independent experiments.

[4] = target: T2, rNPFF-2; assay: as above; format: cell-based; conditions: for Functional Activity rNPFF-2 I.A. %: intrinsic activity as percentage of maximal response by NPFF; for EC50: tested 0.001 nM to 3600 nM, read-out: Functional Activity rNPFF-2 EC50
Source text: as §1

[5] = rat cloned NPFF receptors, by IA and Ki

T1 sequence (Q9EP86 whole entry): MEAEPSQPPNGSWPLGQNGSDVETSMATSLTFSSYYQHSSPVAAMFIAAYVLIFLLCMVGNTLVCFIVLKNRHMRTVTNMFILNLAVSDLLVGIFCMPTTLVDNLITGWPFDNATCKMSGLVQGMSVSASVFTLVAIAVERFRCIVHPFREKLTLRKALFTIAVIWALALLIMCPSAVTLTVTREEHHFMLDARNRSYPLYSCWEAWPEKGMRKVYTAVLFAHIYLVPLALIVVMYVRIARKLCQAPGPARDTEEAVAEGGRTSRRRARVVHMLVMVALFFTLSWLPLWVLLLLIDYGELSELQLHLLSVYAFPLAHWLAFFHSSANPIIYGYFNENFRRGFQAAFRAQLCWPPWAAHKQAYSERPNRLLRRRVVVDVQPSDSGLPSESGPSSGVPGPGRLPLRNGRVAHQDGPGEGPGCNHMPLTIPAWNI
T2 sequence (Q9EQD2 whole entry): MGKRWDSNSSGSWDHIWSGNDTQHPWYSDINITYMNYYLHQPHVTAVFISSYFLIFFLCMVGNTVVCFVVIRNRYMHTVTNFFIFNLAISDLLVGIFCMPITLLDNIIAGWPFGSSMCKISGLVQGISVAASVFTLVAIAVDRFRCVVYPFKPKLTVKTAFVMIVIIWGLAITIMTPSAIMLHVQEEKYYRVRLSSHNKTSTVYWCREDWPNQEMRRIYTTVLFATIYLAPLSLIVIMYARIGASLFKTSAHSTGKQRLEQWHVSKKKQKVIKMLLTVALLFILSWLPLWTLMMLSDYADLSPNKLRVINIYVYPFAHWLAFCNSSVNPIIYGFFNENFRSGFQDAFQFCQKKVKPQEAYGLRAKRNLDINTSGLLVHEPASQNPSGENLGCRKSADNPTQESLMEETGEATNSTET

Functional Activity rNPFF-1 I.A. % [3] [%] | Functional Activity rNPFF-2 I.A. % [4] [%] | EC50 [4] [nM] | Structure (SMILES) | Ki [1] [nM] | Ki [2] [nM] | classification agonist/antagonist at NPFF1 receptors [3, 5] | EC50 [3] [nM] | classification agonist/antagonist at NPFF2 receptors [4, 5]
1 | 79 | 378 | N=C(N)NCCC[C@@H](NS(=O)(=O)c1cccc2ccccc12)C(=O)N[C@@H](Cc1ccccc1)C(N)=O [Compound 3001] | 46 | 2860 | antagonist (an antagonist has a Ki≦1.2 μM and an intrinsic activity (IA)≦15%) | > 10000 | agonist (an agonist has an intrinsic activity (IA)>15%)
75 | 43 | 3720 | N=C(N)NCCC[C@H](NS(=O)(=O)c1ccc(Cl)cc1)C(=O)N[C@@H](Cc1ccccc1)C(N)=O [Compound 1006] | 266 | 1010 |  | 151 | 
 |  |  | COc1ccc(S(=O)(=O)N[C@@H](CCCNC(=N)N)C(=O)N[C@@H](Cc2ccccc2)C(N)=O)cc1 [Compound 1009] | 321 | 1090 |  |  | 
30 | 86 | > 3160 | N=C(N)NCCC[C@H](NS(=O)(=O)c1ccc2ccccc2c1)C(=O)N[C@H](Cc1ccccc1)C(N)=O [Compound 1029] | 399 | 2690 |  | 477 | 
78 | 59 | 2330 | N=C(N)NCCC[C@H](NS(=O)(=O)c1cc(Cl)ccc1Cl)C(=O)N[C@@H](Cc1ccccc1)C(N)=O [Compound 1021] | 335 | 2030 |  | 1030 | 
 | 71 |  | N=C(N)NCCC[C@@H](NS(=O)(=O)c1ccccc1Br)C(=O)N[C@@H](Cc1ccccc1)C(N)=O [Compound 1030] |  |  |  |  | 
88 | 89 | 846 | N=C(N)NCCC[C@H](NS(=O)(=O)c1cccc([N+](=O)[O-])c1)C(=O)N[C@@H](Cc1ccccc1)C(N)=O [Compound 1002] | 136 | 1250 |  | 139 | 
 | 09 |  | N=C(N)NCCC[C@H](NS(=O)(=O)c1ccccc1Br)C(=O)N[C@@H](Cc1ccccc1)C(N)=O [Compound 2001] |  |  |  |  | 
01 | 02 | > 10000 | N=C(N)NCCC[C@H](NS(=O)(=O)c1cc(Cl)sc1Cl)C(=O)N[C@@H](Cc1ccccc1)C(N)=O [Compound 1020] | 1950 | 5150 |  | > 10000 | 
72 | 81 | 660 | N=C(N)NCCC[C@H](NS(=O)(=O)c1ccc(Cl)c([N+](=O)[O-])c1)C(=O)N[C@@H](Cc1ccccc1)C(N)=O [Compound 1016] | 151 | 2090 |  | 62 | 
78 | 33 | > 3160 | COc1ccc(Br)cc1S(=O)(=O)N[C@@H](CCCNC(=N)N)C(=O)N[C@@H](Cc1ccccc1)C(N)=O [Compound 1025] | 328 | 4120 |  | 596 | 
84 | 45 | > 3160 | N=C(N)NCCC[C@H](NS(=O)(=O)c1ccc(F)c(Cl)c1)C(=O)N[C@@H](Cc1ccccc1)C(N)=O [Compound 1017] | 1140 | 3560 |  | 376 | 
56 | 45 | > 3160 | N=C(N)NCCC[C@H](NS(=O)(=O)c1c(Cl)cccc1Cl)C(=O)N[C@@H](Cc1ccccc1)C(N)=O [Compound 1019] | 815 | 3370 |  | 2200 | 
 |  | > 3160 | N#Cc1ccccc1S(=O)(=O)N[C@@H](CCCNC(=N)N)C(=O)N[C@@H](Cc1ccccc1)C(N)=O [Compound 1027] | 515 | 6170 |  | 183 | 
21 | 10 | 5620 | N=C(N)NCCC[C@H](NS(=O)(=O)c1ccc(C(F)(F)F)cc1[N+](=O)[O-])C(=O)N[C@@H](Cc1ccccc1)C(N)=O [Compound 1018] | 1950 | 4430 |  | > 3160 | 
106 | 96 | 2520 | CN(C)c1cccc2c(S(=O)(=O)N[C@@H](CCCN=C(N)N)C(=O)N[C@@H](Cc3ccccc3)C(N)=O)cccc12 [dansyl-RFamide, reference compound] | 88 | 2310 |  | 524 | 
102 | 52 | > 3160 | COc1ccc(C)cc1S(=O)(=O)N[C@@H](CCCNC(=N)N)C(=O)N[C@@H](Cc1ccccc1)C(N)=O [Compound 2003] |  | > 10000 |  |  | 
86 | 34 | > 3160 | N=C(N)NCCC[C@H](NS(=O)(=O)c1ccc(Cl)c(Cl)c1)C(=O)N[C@@H](Cc1ccccc1)C(N)=O [Compound 1022] |  |  |  | 1860 | 

Structure (SMILES) | Functional Activity rNPFF-1 I.A. % [3] [%] | Functional Activity rNPFF-2 I.A. % [4] [%] | EC50 [4] [nM] | Ki [1] [nM] | Ki [2] [nM] | classification agonist/antagonist at NPFF1 receptors [3, 5] | EC50 [3] [nM] | classification agonist/antagonist at NPFF2 receptors [4, 5]
N=C(N)NCCC[C@H](NS(=O)(=O)c1c(F)cccc1F)C(=O)N[C@@H](Cc1ccccc1)C(N)=O [Compound 1004] | 79 | 43 |  | 173 | 1450 |  | 117 | 
N=C(N)NCCC[C@H](NS(=O)(=O)c1cccs1)C(=O)N[C@@H](Cc1ccccc1)C(N)=O [Compound 1013] | 80 | 42 | > 3160 | 211 | 6390 |  | 135 | 
N=C(N)NCCC[C@H](NS(=O)(=O)c1c(F)cccc1F)C(=O)N[C@H](Cc1ccccc1)C(N)=O [Compound 1032] | 47 | 61 | 2760 | 1290 | > 10000 |  | 644 | 
N=C(N)NCCC[C@H](NS(=O)(=O)c1ccccc1)C(=O)N[C@@H](Cc1ccccc1)C(N)=O [Compound 1008] | 70 | 20 | 5620 | 321 | 4410 |  | 4700 | 
N=C(N)NCCC[C@H](NS(=O)(=O)c1ccc(F)cc1)C(=O)N[C@@H](Cc1ccccc1)C(N)=O [Compound 1005] | 71 | 46 | 3500 | 150 | 1370 |  | 104 | 
N#Cc1cccc(S(=O)(=O)N[C@@H](CCCNC(=N)N)C(=O)N[C@@H](Cc2ccccc2)C(N)=O)c1 [Compound 1023] | 90 | 28 | > 3160 | 496 | 9920 |  | 166 | 
N=C(N)NCCC[C@H](NS(=O)(=O)c1ccc(Cl)cc1Cl)C(=O)N[C@@H](Cc1ccccc1)C(N)=O [Compound 1010] | 85 | 28 | 2980 | 871 | 1860 |  | 594 | 
N=C(N)NCCC[C@H](NS(=O)(=O)c1ccc(F)cc1)C(=O)N[C@H](Cc1ccccc1)C(N)=O [Compound 1033] | 42 | 57 | 1940 | 458 | > 10000 |  | 1600 | 
N=C(N)NCCC[C@@H](NS(=O)(=O)c1ccc(F)cc1)C(=O)N[C@@H](Cc1ccccc1)C(N)=O [Compound 1028] |  | 62 | 1580 | 1280 | 8060 |  | 404 | 
N=C(N)NCCC[C@H](NS(=O)(=O)c1ccccc1[N+](=O)[O-])C(=O)N[C@@H](Cc1ccccc1)C(N)=O [Compound 1026] | 79 | 59 | > 3160 | 535 | 3500 |  | 412 | 
N=C(N)NCCC[C@H](NS(=O)(=O)c1ccc2ccccc2c1)C(=O)N[C@@H](Cc1ccccc1)C(N)=O [Compound 1014, N1-[(1S)-2-Amino-1-benzyl-2-oxoethyl]-(2S)-(5-guanidino)-2-[(2-naphthylsulfonyl)amino]pentanamide] | 74 | 73 | 906 | 314 | 2780 |  | 52 | 
N=C(N)NCCC[C@H](NS(=O)(=O)Cc1ccccc1)C(=O)N[C@@H](Cc1ccccc1)C(N)=O [Compound 1011, N1-[(1S)-2-Amino-1-benzyl-2-oxoethyl]-(25)-5-[amino(imino)methyl]amino-2-[(benzylsulfonyl)amino]pentanamide] | 74 | 62 | 1340 | 5960 | > 10000 |  | 765 | 
N=C(N)NCCC[C@H](NS(=O)(=O)c1ccc([N+](=O)[O-])cc1)C(=O)N[C@@H](Cc1ccccc1)C(N)=O [Compound 1003] | 74 | 44 | 1870 | 732 | 2610 |  | 149 | 
COc1ccc(S(=O)(=O)N[C@@H](CCCNC(=N)N)C(=O)N[C@@H](Cc2ccccc2)C(N)=O)cc1OC [Compound 1015] | 84 | 74 | 1810 | 462 | > 10000 |  | 140 | 
